Key:
Assay type in all cases: cell-based
KRAS = target: T1, KRAS (Homo sapiens, UniProt P01116); experiment: KRASamp MSD assay; details: KE39 (KRAS amplified) cells, treated with test compounds for 24 hr, MSD readout of KRAS degradation
T1 construct: endogenous in cells; host or cells: KE39 (KRAS amplified) cells
Summary of the method: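 Degradation DC50 derived by curve fitting, with KRAS levels quantified by MSD electrochemiluminescence (capture/detection antibodies, recombinant WT KRAS standard). Lysates prepared from KE39 cells (KRAS amplified) exposed to test compounds for 24 hr.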

KRAS G12D = target: T2, KRAS G12D (Homo sapiens, UniProt P01116, G12D); experiment: KRAS G12D HiBit assay; details: AsPc-1-KRAS (G12D)-HiBit-KI cell, compound treatment for 24 hours; for DC50: absolute DC50
T2 construct: AsPc-1-KRAS (G12D)-HiBit-KI cell (Pharmaron); host or cells: AsPc-1-KRAS (G12D)-HiBit-KI cells (HiBiT knock-in at the endogenous KRAS locus)
Summary of the method: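 HiBiT luminescence, detected by adding lytic buffer, substrate and LgBiT protein, served as the KRAS G12D read-out. Compounds, serially diluted 3-fold over 10 points from 0.3 mM DMSO stock, were on cells for 24 h; percent inhibition normalized to cells given 0.1% DMSO only.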

KRAS G12V = target: T3, KRAS G12V (Homo sapiens, UniProt P01116, G12V); experiment: KRAS G12V HiBit assay; details: SW620-KRAS (G12V)-HiBit-KI cells, compound treatment for 24 hours, class symbols
T3 construct: SW620-KRAS (G12V)-HiBit-KI cell (Pharmaron); host or cells: SW620-KRAS (G12V)-HiBit-KI cells (HiBiT knock-in at the endogenous KRAS locus)
Summary of the method: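 Luminescence from lytic Nano-Glo HiBiT detection with LgBiT read KRAS G12V levels after 24 h compound exposure. Dilutions were 10-point, 3-fold, from a 0.3 mM DMSO stock. Degradation activity was normalised to cells given 0.1% DMSO alone.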

[1] = numeric bounds given in place of class symbols

T3 sequence (P01116 1-188 isoform P01116-2 G12V): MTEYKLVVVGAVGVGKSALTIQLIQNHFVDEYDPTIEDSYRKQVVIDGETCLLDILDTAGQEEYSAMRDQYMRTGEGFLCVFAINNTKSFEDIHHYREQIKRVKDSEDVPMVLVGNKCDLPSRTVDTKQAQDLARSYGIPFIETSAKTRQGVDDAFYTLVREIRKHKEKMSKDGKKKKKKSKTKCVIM
T2 sequence (P01116 1-188 isoform P01116-2 G12D): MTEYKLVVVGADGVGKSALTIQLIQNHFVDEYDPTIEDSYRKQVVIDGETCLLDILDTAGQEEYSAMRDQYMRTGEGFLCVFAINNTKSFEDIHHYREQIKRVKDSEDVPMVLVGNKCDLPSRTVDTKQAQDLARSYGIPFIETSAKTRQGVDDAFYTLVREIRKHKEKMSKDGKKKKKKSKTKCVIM
T1 sequence (P01116 1-188 isoform P01116-2): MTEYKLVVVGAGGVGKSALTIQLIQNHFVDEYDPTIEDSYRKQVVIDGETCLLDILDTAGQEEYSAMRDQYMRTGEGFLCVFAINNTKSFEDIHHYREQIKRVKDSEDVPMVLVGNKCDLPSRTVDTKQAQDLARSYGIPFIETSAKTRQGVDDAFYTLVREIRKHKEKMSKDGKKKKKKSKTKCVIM

| Structure (SMILES) | DC50 (KRAS) [nM] | DC50 (KRAS G12D; [1]) [nM] | DC50 (KRAS G12V) [nM] | DC50 (KRAS G12D; class symbols) [nM] | Dmax (KRAS G12D; class symbols) [%] |
| --- | --- | --- | --- | --- | --- |
| CCc1c(F)ccc2cc(O)cc(-c3ncc4c(N5CCCCCC5)nc(OC[C@@]56CCCN5[C@H](COC(=O)N5CCC7(CC5)CC(N5CCC(c8ccc9c(c8)n(C)c(=O)n9C8CCC(=O)NC8=O)CC5)C7)CC6)nc4c3F)c12 (stereo partly drawn) [Compound 344, ((3S,7aS)-7a-(((4-(azepan-1-yl)-7-(8-ethyl-7-fluoro-3-hydroxynaphthalen-1-yl)-8-fluoropyrido[4,3-d]pyrimidin-2-yl)oxy)methyl)hexahydro-1H-pyrrolizin-3-yl)methyl 2-(4-(1-(2,6-dioxopiperidin-3-yl)-3-methyl-2-oxo-2,3-dihydro-1H-benzo[d]imidazol-5-yl)piperidin-1-yl)-7-azaspiro[3.5]nonane-7-carboxylate] | 1 to 10 | > 100 | > 100 |  |  |
| C#Cc1c(F)ccc2cc(O)cc(-c3ncc4c(N5CCC[C@@](C)(O)C5)nc(OC[C@@]56CCCN5[C@H](COC(=O)N5CCC(OCC#Cc7cccc8c7n(C)c(=O)n8C7CCC(=O)NC7=O)CC5)CC6)nc4c3F)c12 (stereo partly drawn) [Compound 372, ((3S,7aS)-7a-(((7-(8-ethynyl-7-fluoro-3-hydroxynaphthalen-1-yl)-8-fluoro-4-((R)-3-hydroxy-3-methylpiperidin-1-yl)pyrido[4,3-d]pyrimidin-2-yl)oxy)methyl)hexahydro-1H-pyrrolizin-3-yl)methyl 4-((3-(1-(2,6-dioxopiperidin-3-yl)-3-methyl-2-oxo-2,3-dihydro-1H-benzo[d]imidazol-4-yl)prop-2-yn-1-yl)oxy)piperidine-1-carboxylate] | 1 to 10 |  | 10 to 100 | < 100 |  |
| CCc1c(F)ccc2cc(O)cc(-c3ncc4c(N5CCC[C@@](C)(O)C5)nc(OC[C@@]56CCCN5[C@H](CN5CCC7(CC5)CC(N5CCC(c8ccc9c(c8)n(C)c(=O)n9C8CCC(=O)NC8=O)CC5)C7)CC6)nc4c3F)c12 (stereo partly drawn) [Compound 471, 3-(5-(1-(7-(((3S,7aS)-7a-(((7-(8-Ethyl-7-fluoro-3-hydroxynaphthalen-1-yl)-8-fluoro-4-((R)-3-hydroxy-3-methylpiperidin-1-yl)pyrido[4,3-d]pyrimidin-2-yl)oxy)methyl)hexahydro-1H-pyrrolizin-3-yl)methyl)-7-azaspiro[3.5]nonan-2-yl)piperidin-4-yl)-3-methyl-2-oxo-2,3-dihydro-1H-benzo[d]imidazol-1-yl) piperidine-2,6-dione] | 1 to 10 |  | > 100 | < 100 |  |
| C#Cc1c(F)ccc2cc(O)cc(-c3ncc4c(N5CCC[C@@](C)(O)C5)nc(OC[C@@]56CCCN5[C@H](COC(=O)N5CCC(CC#Cc7cccc8c7n(C)c(=O)n8C7CCC(=O)NC7=O)CC5)CC6)nc4c3F)c12 (stereo partly drawn) [Compound 374, ((3S,7aS)-7a-(((7-(8-ethynyl-7-fluoro-3-hydroxynaphthalen-1-yl)-8-fluoro-4-((R)-3-hydroxy-3-methylpiperidin-1-yl)pyrido[4,3-d]pyrimidin-2-yl)oxy)methyl)hexahydro-1H-pyrrolizin-3-yl)methyl 4-(3-(1-(2,6-dioxopiperidin-3-yl)-3-methyl-2-oxo-2,3-dihydro-1H-benzo[d]imidazol-4-yl)prop-2-yn-1-yl)piperidine-1-carboxylate] | 1 to 10 |  | 10 to 100 | 100 to 300 |  |
| C#Cc1c(F)ccc2cc(O)cc(-c3ncc4c(N5CCOCC5)nc(OC[C@@]56CCCN5[C@H](COC(=O)N5CCC(CN7CCC(c8ccc9c(c8)n(C)c(=O)n9C8CCC(=O)NC8=O)CC7)CC5)CC6)nc4c3F)c12 (stereo partly drawn) [Compound 125, ((3S,7aS)-7A-(((7-(8-Ethynyl-7-fluoro-3-hydroxynaphthalen-1-yl)-8-fluoro-4-morpholinopyrido[4,3-d]pyrimidin-2-yl)oxy)methyl)hexahydro-1H-pyrrolizin-3-yl)methyl 4-((4-(1-(2,6-dioxopiperidin-3-yl)-3-methyl-2-oxo-2,3-dihydro-1H-benzo[d]imidazol-5-yl)piperidin-1-yl)methyl) piperidine-1-carboxylate] | < 1 |  | < 10 | < 100 | > 50 |
| C#Cc1c(F)ccc2cc(O)cc(-c3ncc4c(N5CCC[C@@](C)(O)C5)nc(OC[C@@]56CCCN5[C@H](COC(=O)N5CCC7(CCC(N8CCC(c9ccc%10c(c9)n(C)c(=O)n%10C9CCC(=O)NC9=O)CC8)CC7)CC5)CC6)nc4c3F)c12 (stereo partly drawn) [Compound 413, ((3S,7aS)-7a-(((7-(8-ethynyl-7-fluoro-3-hydroxynaphthalen-1-yl)-8-fluoro-4-((R)-3-hydroxy-3-methylpiperidin-1-yl)pyrido[4,3-d]pyrimidin-2-yl)oxy)methyl)hexahydro-1H-pyrrolizin-3-yl)methyl 9-(4-(1-(2,6-dioxopiperidin-3-yl)-3-methyl-2-oxo-2,3-dihydro-1H-benzo[d]imidazol-5-yl)piperidin-1-yl)-3-azaspiro[5.5]undecane-3-carboxylate] | < 1 |  | < 10 | < 100 |  |

Results, then the molecule that gave them:

| DC50 (KRAS) [nM] | DC50 (KRAS G12D; [1]) [nM] | DC50 (KRAS G12V) [nM] | DC50 (KRAS G12D; class symbols) [nM] | Dmax (KRAS G12D; class symbols) [%] | Structure (SMILES) |
| --- | --- | --- | --- | --- | --- |
| < 1 |  | < 10 | < 100 |  | C#Cc1c(F)ccc2cc(O)cc(-c3ncc4c(N5CCC[C@@](C)(O)C5)nc(OC[C@@]56CCCN5[C@H](COC(=O)N5CCC(OC7CCN(c8ccc9c(c8)n(C)c(=O)n9C8CCC(=O)NC8=O)CC7)CC5)CC6)nc4c3F)c12 (stereo partly drawn) [Compound 155, ((3S,7aS)-7a-(((7-(8-Ethynyl-7-fluoro-3-hydroxynaphthalen-1-yl)-8-fluoro-4-((R)-3-hydroxy-3-methylpiperidin-1-yl)pyrido[4,3-d]pyrimidin-2-yl)oxy)methyl)hexahydro-1H-pyrrolizin-3-yl)methyl 4-((1-(1-(2,6-dioxopiperidin-3-yl)-3-methyl-2-oxo-2,3-dihydro-1H-benzo[d]imidazol-5-yl)piperidin-4-yl)oxy)piperidine-1-carboxylate] |
| < 1 |  | < 10 | < 100 |  | CCc1c(F)ccc2cc(O)cc(-c3ncc4c(N5CCC[C@@](C)(O)C5)nc(OC[C@@]56CCCN5[C@H](COC(=O)Nc5ccc(CN7CCC(c8ccc9c(c8)n(C)c(=O)n9C8CCC(=O)NC8=O)CC7)cc5)CC6)nc4c3F)c12 (stereo partly drawn) [Compound 450, ((3S,7aS)-7a-(((7-(8-ethyl-7-fluoro-3-hydroxynaphthalen-1-yl)-8-fluoro-4-((R)-3-hydroxy-3-methylpiperidin-1-yl)pyrido[4,3-d]pyrimidin-2-yl)oxy)methyl)hexahydro-1H-pyrrolizin-3-yl)methyl (4-((4-(1-(2,6-dioxopiperidin-3-yl)-3-methyl-2-oxo-2,3-dihydro-1H-benzo[d]imidazol-5-yl)piperidin-1-yl)methyl)phenyl)carbamate] |
| < 1 |  | < 10 | < 100 |  | CCc1c(F)ccc2cc(O)cc(-c3ncc4c(N5CCC[C@@](C)(O)C5)nc(OC[C@@]56CCCN5[C@H](COC(=O)N5C7CCC5CC(CN5CCC(c8ccc9c(c8)n(C)c(=O)n9C8CCC(=O)NC8=O)CC5)C7)CC6)nc4c3F)c12 (stereo partly drawn) [Compound 392, ((3S,7aS)-7a-(((7-(8-ethyl-7-fluoro-3-hydroxynaphthalen-1-yl)-8-fluoro-4-((R)-3-hydroxy-3-methylpiperidin-1-yl)pyrido[4,3-d]pyrimidin-2-yl)oxy)methyl)hexahydro-1H-pyrrolizin-3-yl)methyl 3-((4-(1-(2,6-dioxopiperidin-3-yl)-3-methyl-2-oxo-2,3-dihydro-1H-benzo[d]imidazol-5-yl)piperidin-1-yl)methyl)-8-azabicyclo[3.2.1]octane-8-carboxylate] |
| < 1 |  | < 10 | < 100 |  | CCc1c(F)ccc2cc(O)cc(-c3ncc4c(N5CCC[C@@](C)(O)C5)nc(OC[C@@]56CCCN5[C@H](COC(=O)Nc5ccc(N7CCC(c8ccc9c(c8)n(C)c(=O)n9C8CCC(=O)NC8=O)CC7)cc5)CC6)nc4c3F)c12 (stereo partly drawn) [Compound 451, ((3S,7aS)-7a-(((7-(8-ethyl-7-fluoro-3-hydroxynaphthalen-1-yl)-8-fluoro-4-((R)-3-hydroxy-3-methylpiperidin-1-yl)pyrido[4,3-d]pyrimidin-2-yl)oxy)methyl)hexahydro-1H-pyrrolizin-3-yl)methyl (4-(4-(1-(2,6-dioxopiperidin-3-yl)-3-methyl-2-oxo-2,3-dihydro-1H-benzo[d]imidazol-5-yl)piperidin-1-yl)phenyl)carbamate] |
| < 1 | > 100 | < 10 |  |  | CCc1c(F)ccc2cc(O)cc(-c3ncc4c(N5CCC[C@@](C)(O)C5)nc(OC[C@@]56CCCN5[C@H](COC(=O)N5CCC(C)(CN7CCC(c8ccc9c(c8)n(C)c(=O)n9C8CCC(=O)NC8=O)CC7)CC5)CC6)nc4c3F)c12 (stereo partly drawn) [Compound 157, ((3S,7aS)-7a-(((7-(8-Ethyl-7-fluoro-3-hydroxynaphthalen-1-yl)-8-fluoro-4-((R)-3-hydroxy-3-methylpiperidin-1-yl)pyrido[4,3-d]pyrimidin-2-yl)oxy)methyl)hexahydro-1H-pyrrolizin-3-yl)methyl 4-((4-(1-(2,6-dioxopiperidin-3-yl)-3-methyl-2-oxo-2,3-dihydro-1H-benzo[d]imidazol-5-yl)piperidin-1-yl)methyl)-4-methylpiperidine-1-carboxylate] |
